The text below walks through data of BindingDB's records for doi:10.1021/acs.jmedchem.6b01918 (Bristol Myers Squibb, 2017).

A short description of this assay: Inhibition of Nav1.7 in C57BL/6 […] embryonic DRG cells assessed as blockade of spontaneous neuronal firing by Maestro microelectrode array analysis.

Take `N[C@H]1CC[C@@H](CNc2cc(F)c(S(=O)(=O)Nc3nccs3)cc2Cl)CC1`: the IC50 was 1.2 nM.

For orientation: IC50 means the concentration at which inhibition is half-maximal.
